Test results reported in ChEMBL document CHEMBL1136856, “Synthesis of 5-isoxazol-5-yl-2'-deoxyuridines exhibiting antiviral activity against HSV and several RNA viruses” (Bioorg Med Chem Lett, 2009).
Converted amounts (≈) assume the structure as drawn. The source made the active and inactive calls. The calls are words filed in the database; no cut-off is given here.

Key:
Format in all cases: functional, organism-based
Human alphaherpesvirus 1 = experiment: Antiviral activity against HSV1 assessed as inhibition of virus-induced cytopathicity
Human alphaherpesvirus 2 = experiment: Antiviral activity against HSV2 assessed as inhibition of virus-induced cytopathicity
Coronaviridae = experiment: Antiviral activity against Coronavirus assessed as inhibition of virus-induced cytopathicity
[1] = test system: Encephalomyocarditis virus; experiment: Antiviral activity against EMCV assessed as inhibition of virus-induced cytopathicity; details: Cardiovirus A
Influenza A virus [2] = experiment: Antiviral activity against influenza A virus Panama assessed as inhibition of virus-induced cytopathicity
Influenza A virus [3] = experiment: Antiviral activity against influenza A virus Taiwan assessed as inhibition of virus-induced cytopathicity
Influenza A virus [4] = experiment: Antiviral activity against influenza A virus Seoul assessed as inhibition of virus-induced cytopathicity
[5] = test system: Human immunodeficiency virus; experiment: Antiviral activity against HIV assessed as inhibition of virus-induced cytopathicity
[6] = test system: Vesicular stomatitis virus; experiment: Antiviral activity against VSV assessed as inhibition of virus-induced cytopathicity
Coxsackievirus B3 = experiment: Antiviral activity against Coxsackievirus B3 assessed as inhibition of virus-induced cytopathicity; details: Enterovirus B

Structure (SMILES) | EC50 (Human alphaherpesvirus 1) [µg/mL] | EC50 (Human alphaherpesvirus 2) [µg/mL] | Activity (Coronaviridae) | EC50 [1] [µg/mL] | Activity (Influenza A virus [2]) | Activity (Influenza A virus [3]) | Activity (Influenza A virus [4]) | Activity [5] | EC50 [6] [µg/mL] | EC50 (Coxsackievirus B3) [µg/mL]
Nc1ccn([C@@H]2O[C@H](CO)[C@@H](O)[C@@H]2O)c(=O)n1 [CYTARABINE] | 0.2 (≈ 0.822 µM) | 0.52 (≈ 2.14 µM) | – | – | – | – | – | – | – | –
CC(C)c1ccc(-c2cc(-c3cn([C@H]4C[C@H](O)[C@@H](CO)O4)c(=O)[nH]c3=O)on2)cc1 | 0.09 (≈ 0.218 µM) | 0.09 (≈ 0.218 µM) | inactive | 0.02 (≈ 0.0484 µM) | inactive | inactive | inactive | inactive | > 0.07 | 0.03 (≈ 0.0726 µM)
NC(=O)c1ncn([C@@H]2O[C@H](CO)[C@@H](O)[C@H]2O)n1 [RIBAVIRIN] | – | – | – | 0.02 (≈ 0.0819 µM) | – | – | – | – | – | –
Nc1nc2c(ncn2COCCO)c(=O)[nH]1 [ACYCLOVIR] | 0.18 (≈ 0.799 µM) | 0.36 (≈ 1.6 µM) | – | – | – | – | – | – | – | –
CC(=O)OC[C@H]1O[C@@H](n2cc(-c3cc(-c4ccc(C(C)C)cc4)no3)c(=O)[nH]c2=O)C[C@@H]1OC(C)=O | 0.08 (≈ 0.161 µM) | 0.07 (≈ 0.141 µM) | inactive | 0.01 (≈ 0.0201 µM) | inactive | inactive | inactive | inactive | 0.03 (≈ 0.0603 µM) | 0.01 (≈ 0.0201 µM)
CC(=O)OC[C@H]1O[C@@H](n2cc(-c3cc(-c4ccc(C(C)(C)C)cc4)no3)c(=O)[nH]c2=O)C[C@@H]1OC(C)=O | > 0.06 | 0.03 (≈ 0.0586 µM) | inactive | 0.01 (≈ 0.0195 µM) | inactive | inactive | inactive | inactive | 0.03 (≈ 0.0586 µM) | 0.01 (≈ 0.0195 µM)
